Measured values: US20250017878A1 (Chronic Airway Therapeutics Limited, priority 2021, published 2025)

Experiments:
[1] = test system: asthmatic mice (ovalbumin-sensitized and ovalbumin-challenged); experiment: Airway responsiveness to methacholine (airway resistance Raw, forced oscillation) in murine model of asthma, Example 1; assay type: in vivo, Balb/cJ mice; details: for airway responsiveness to methacholine provocation (Raw), chronic treatment: drug delivered for 28 days (chow or osmotic minipump); for airway responsiveness to methacholine provocation (Raw), acute treatment: single intravenous bolus 15 minutes before methacholine
Experimental: The results obtained in drug-treated animals were compared with those obtained in vehicle-treated counterparts (controls) in experiments performed in close temporal relationship. […] Mice were sensitized with subcutaneous injection of 25 μg of ovalbumin adsorbed to aluminum hydroxide on protocol days 2, 9, and 16. Subsequently, mice were given 50 μL of saline solution containing 25 μg of ovalbumin intranasally, on a daily basis, from protocol days 23 through 27. A group of ovalbumin-sensitized saline-challenged mice serves as controls for systemic sensitization and respiratory challenges with ovalbumin. Prior to intranasal administrations, mice were sedated with halothane vapor. For the study of Example 1, ovalbumin-sensitized and ovalbumin-challenged mice, and ovalbumin-sensitized and saline-challenged mice will be referred to as asthmatic mice and control mice, respectively. […] To examine the effects of duration of β-adrenergic ligand therapy on the phenotype of the murine model of asthma, the experimental drugs were administered either acutely or chronically to different groups of asthmatic mice. […] These concentrations were chosen based on those producing therapeutic effects in mice in previously published studies. The non-asthmatic mice were fed normal chow. Salbutamol was delivered for 28 days at a dose of 0.5 mg/kg/day using an osmotic minipump (Alzet®, #2004, Durect Corporation, Cupertino, CA). […] Airway resistance (Raw) was measured using the forced oscillation technique. The cellular composition of bronchoalveolar lavage fluid (BALF) was also determined. […] However, it was observed that the degree of airway responsiveness and the number of eosinophils recovered in BALF were lower in non-treated asthmatic mice studied in close temporal relationship with mice receiving acute β-adrenergic antagonist treatments that in those obtained in non-treated asthmatic mice studied concomitantly with mice on chronic β-adrenergic antagonist therapy. […] The complex input impedance of the respiratory system was computed and the value of the real part of respiratory system impedance at 19.75 Hz was taken to reflect the magnitude of airway resistance (Raw). To examine the degree of airway responsiveness of each animal, the values for Raw as a function of methacholine doses were plotted. The largest value for Raw achieved in response to methacholine stimulation was referred to as […]. For mice that achieved a plateau in the methacholine dose-Raw response curve, the ED50 was calculated by linear interpolation using the GraphPad Prism4 (GraphPad Software, Inc.). Results obtained for β-adrenergic drug-treated and non-treated mice were performed using the analysis of variance for multiple groups of a Student's t-test for comparing two groups. The Bonferroni test was used to examine the statistical differences between experimental groups. The effects of acute drug treatments on baseline respiratory system mechanics were assessed using a two-tailed paired t-test. A value of P<0.05 was considered significant.

β2-adrenergic receptor [2] = experiment: Determination of β-adrenergic receptor density by radioligand (ICYP) binding in lung membranes of treated asthmatic mice, Example 2; assay type: in vivo; details: for change of the level of the β2-adrenergic receptor, in words: chronic treatment; for Apparent KD (of radioligand ICYP) / Bmax (β-adrenergic receptor density) / βmax (β-adrenergic receptor density): lung membranes; for Apparent KD (of radioligand ICYP): KD of ICYP binding, not of the drug; for Bmax (β-adrenergic receptor density) / βmax (β-adrenergic receptor density): mean ± SEM, n=3-5
Experimental: β2-adrenergic receptor numbers were measured in asthmatic mice as follows. […] Mice were sacrificed and lung membranes were isolated as follows. Frozen lung tissue was homogenized in an ice-cold buffer containing 0.32 M sucrose and 25 mM Tris (pH 7.4) using a polytron (Pro 200, Pro Scientific, Inc.). The homogenate was centrifuged at 1000×g for 10 min at 4° C. The resulting supernatant was centrifuged at 40,000×g for 20 min at 4° C. The pellet was suspended in an ice-cold 25 mM Tris-HCl buffer (pH 7.4) and centrifuged at 40,000×g for 20 min at 4° C. The final pellet was suspended in 200 μL of 25 mM Tris-HCl (pH 7.4); membrane protein concentration was determined by BCA protein assay kit. […] The incubation was done at 37° C. for 2 h and terminated by rapid vacuum filtration through glass fiber filters. The filters were washed three times with 250 μL of cold wash buffer (25 mM Tris-HCl, pH 7.4) and the radioactivity determined in a counter. […] Receptor densities are expressed as femtomoles of sites per milligram of protein. Bmax is determined by nonlinear regression of the saturation binding curves. […] Please note that the 15-minute and 28-day time points refer to duration of drug treatment.

asthmatic mice [3] = experiment: Decrease in airway resistance (Raw) by period of administration, Example 8 / Table 2; assay type: in vivo
Experimental: (§1) The periods of administration of the agents are 15 minutes, 2 days, and 28 days. […] This strongly supports the concept of combination therapy, such as with an inverse agonist and an agonist.

[4] = test system: mucous metaplasia in sensitized/challenged mice; experiment: Mucous metaplasia in sensitized/challenged mice (photomicrographs), Example 10; assay type: in vivo; details: sensitized/challenged mice after treatment
β-arrestin pathway = experiment: Blockade of the β-arrestin pathway, Example 16 / FIG. 16; assay type: cell-based
β2-adrenergic receptor [5] = biological target: β2-adrenergic receptor (Mus musculus, UniProt P18762); experiment: Upregulation of β2-adrenergic receptor density by period of administration, Example 8 / Table 2; assay type: in vivo, mice; set-up: from tissue
Experimental: as §1

asthmatic mice [6] = experiment: β-adrenergic receptor drugs at low and high doses on airway resistance, Example 7; assay type: in vivo; details: chronic administration in chow, high and low dose
Experimental: For these experiments, salbutamol was used for chronic administration at 0.5 mg/kg/day with a minipump and for acute administration at 0.15 mg/kg by i.v. bolus 15 minutes prior to challenge. […] Carvedilol was used at a high dose of 2400 ppm in chow or at a low dose of 720 ppm in chow. […] In these diagrams, Ctrl=control mice, non-asthmatic, non-drug treated; NTX=asthmatic mice, non-drug treated; AC=acute administration; 2d=chronic administration for 2 days; 28d=chronic administration for 28 days. The airway resistance (Raw) is plotted as cm H2O ml^−1 s.

[7] = test system: asthmatic mice (ovalbumin-sensitized, challenged); experiment: Combination of carvedilol and salbutamol on airway hyperresponsiveness, Example 4; details: 28 days treatment; highest dose of methacholine
Experimental: Mice (Balb/cJ) aged 6 weeks were housed under specific pathogen-free conditions and fed a chicken ovalbumin-free diet. Mice were systemically sensitized with ovalbumin adsorbed to aluminum hydroxide.
To induce airway constriction, a solution containing 150 μg/mL of methacholine was infused using a syringe infusion pump. […] Each methacholine dose was administered until a plateau was reached, during which data were sampled at 1-minute intervals for 3-5 minutes and then averaged.

[8] = cited from earlier work
[9] = cited from earlier work; remark: listed apart in the source
asthmatic mice [10] = experiment: Chronic treatment with metoprolol and timolol on airway responsiveness in asthmatic mice, Example 9; assay type: in vivo; details: 7 days; metoprolol 20 mg/kg 3× daily s.c., timolol 20 mg/kg in chow; methacholine challenge
Experimental: Airway resistance (Raw) was measured as in Example 1. The results were compared to historical controls as shown in FIG. 9B: Ctrl, no drug treatment, no challenge with methacholine; NTX, no drug treatment, challenged with methacholine.

Sequence of β2-adrenergic receptor (Mus musculus, UniProt P18762) (P18762 whole entry): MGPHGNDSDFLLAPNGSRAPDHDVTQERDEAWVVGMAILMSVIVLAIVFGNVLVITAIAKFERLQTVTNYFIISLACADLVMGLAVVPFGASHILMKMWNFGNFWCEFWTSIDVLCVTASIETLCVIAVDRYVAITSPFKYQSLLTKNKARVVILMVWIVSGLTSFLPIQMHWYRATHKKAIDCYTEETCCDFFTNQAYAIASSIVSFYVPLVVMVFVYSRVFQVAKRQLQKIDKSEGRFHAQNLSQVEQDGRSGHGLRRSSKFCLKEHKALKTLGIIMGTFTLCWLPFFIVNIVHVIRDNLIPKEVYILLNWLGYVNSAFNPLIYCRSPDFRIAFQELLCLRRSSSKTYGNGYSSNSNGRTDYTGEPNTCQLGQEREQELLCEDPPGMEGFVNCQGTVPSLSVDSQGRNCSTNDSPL

Row | SMILES | airway responsiveness to methacholine provocation (Raw), chronic treatment [1] | airway responsiveness to methacholine provocation (Raw), acute treatment [1] | Apparent KD (of radioligand ICYP) (β2-adrenergic receptor [2]; drug treatment 15 Minutes) | Bmax (β-adrenergic receptor density) (β2-adrenergic receptor [2]; drug treatment 15 Minutes) | Apparent KD (of radioligand ICYP) (β2-adrenergic receptor [2]; drug treatment 28 Days) | βmax (β-adrenergic receptor density) (β2-adrenergic receptor [2]; drug treatment 28 Days) | Decreased Raw (asthmatic mice [3]; 15 minutes administration) | Decreased Raw (asthmatic mice [3]; 2 days administration) | Decreased Raw (asthmatic mice [3]; 28 days administration) | block of the β-arrestin pathway (β-arrestin pathway) | Increased β2AR density (β2-adrenergic receptor [5]; 15 minutes administration) | Increased β2AR density (β2-adrenergic receptor [5]; 2 days administration) | Increased β2AR density (β2-adrenergic receptor [5]; 28 days administration) | further results
1 | C=CCc1ccccc1OCC(O)CNC(C)C (stereo not drawn) [Alprenolol, alprenolol] | provides no benefit upon chronic administration | airway responsiveness was diminished | (453.6 ± 86.33) pM | 299.5 ± 12.19 femtomoles of sites per milligram of protein | (290.9 ± 55.07) pM | 179.2 ± 53.05 femtomoles of sites per milligram of protein | yes | no | no | did not block the β-arrestin pathway | yes | no | no | change of the level of the β2-adrenergic receptor, in words (β2-adrenergic receptor [2]): slight decrease of the level of the 2-adrenergic receptor; mucous metaplasia [4]: no improvement in mucous metaplasia
2 | COc1ccccc1OCCNCC(O)COc1cccc2[nH]c3ccccc3c12 (stereo not drawn) [Carvedilol, carvedilol] | reduced the responsiveness of asthmatic mice to methacholine provocation | enhanced the airway responsiveness in the asthmatic mice | (565.2 ± 192.8) pM | 86.3 ± 19.42 femtomoles of sites per milligram of protein | (1444.0 ± 202.0) pM | 904.1 ± 43.46 femtomoles of sites per milligram of protein | no | no | yes | did not block the β-arrestin pathway | no | no | yes | increase of the level of β2-adrenergic receptors over the non-treated mice (β2-adrenergic receptor [2]; chronic administration, versus untreated methacholine-challenged asthmatic mice): over 10 fold; protection from airway hyperresponsiveness (asthmatic mice [6]): providing protection from airway hyperresponsiveness with chronic administration; bronchoconstriction / airway hyperresponsiveness to allergen and methacholine challenge [7]: higher bronchoconstriction than these treatments but less than the non-drug treated sensitized and challenged (NTX S/C) mice
3 | CC(C)(C)NCC(O)c1ccc(O)c(CO)c1 (stereo not drawn) [Salbutamol, salbutamol] | no protection was observed | reduced the level of airway responsiveness to methacholine provocation and the level of airway resistance | (228.8 ± 33.07) pM | 256.5 ± 29.24 femtomoles of sites per milligram of protein | (225.4 ± 41.79) pM | 97.0 ± 23.02 femtomoles of sites per milligram of protein | yes | no | no |  | yes | no | no | change of the level of the β2-adrenergic receptor, in words (β2-adrenergic receptor [2]): slight decrease; bioavailability of inhaled drug ([8]; 10 patients with cystic fibrosis versus healthy adults): greater than that in healthy adults
4 | CCCC1O[C@@H]2C[C@H]3[C@@H]4CCC5=CC(=O)C=C[C@]5(C)[C@H]4[C@@H](O)C[C@]3(C)[C@]2(C(=O)CO)O1 (stereo partly drawn) [budesonide] |  |  |  |  |  |  |  |  |  |  |  |  |  | plasma clearance of the two enantiomers per kilogram bodyweight, children with asthma higher than healthy adults ([9]; 6 children with asthma versus 11 healthy adults): about 50%; elimination half-life ([9]; in vivo): 2.8 ± 1.1 h; plasma clearance ([9]; in vivo): 84 ± 27 L/h; plasma clearance relative to average clearance of prednisolone ([9]; in vivo): about 10 fold; systemic availability of the swallowed fraction ([9]; in vivo): 10.7±4.3%
5 | C[C@@H]1C[C@H]2[C@@H]3C[C@H](F)C4=CC(=O)C=C[C@]4(C)[C@@]3(F)[C@@H](O)C[C@]2(C)[C@@]1(O)C(=O)SCF [fluticasone] |  |  |  |  |  |  |  |  |  |  |  |  |  | first-pass hepatic metabolism of the systemically absorbed drug ([9]; inhaled drug): almost complete
6 | COCCc1ccc(OCC(O)CNC(C)C)cc1 (stereo not drawn) [metoprolol] |  |  |  |  |  |  |  |  |  |  |  |  |  | airway hyperresponsiveness after chronic treatment (asthmatic mice [10]): effective in reducing airway hyperresponsiveness in asthmatic mice
7 | CC(C)NCC(O)COc1cccc2ccccc12 (stereo not drawn) [propranolol] |  |  |  |  |  |  |  |  |  | did not block the β-arrestin pathway |  |  |  | 
8 | OCc1cc(C(O)CNCCCCCCOCCCCc2ccccc2)ccc1O (stereo not drawn) [salmeterol] |  |  |  |  |  |  |  |  |  |  |  |  |  | time in which the majority of a dose is eliminated in the feces ([8]; in vivo): ≤ 72 h
9 | CC(C)(C)NCC(O)c1cc(O)cc(O)c1 (stereo not drawn) [terbutaline] |  |  |  |  |  |  |  |  |  |  |  |  |  | increase of bioavailability by the oral component ([8]; from an MDI): 6.7%; absorption through the lung ([8]; healthy smokers versus healthy nonsmokers): more rapidly in healthy smokers than in healthy nonsmokers
10 | CC(C)(C)NC[C@H](O)COc1nsnc1N1CCOCC1 [timolol] |  |  |  |  |  |  |  |  |  |  |  |  |  | airway hyperresponsiveness after chronic treatment (asthmatic mice [10]): effective in reducing airway hyperresponsiveness in asthmatic mice
